# Results taken from patent publication US20240228647A1, “OFATUMUMAB FOR TREATING MULTIPLE SCLEROSIS IN ASIAN PATIENTS” (Novartis AG, priority 2021, published 2024).
# Assays:
# [1] = tested on: patients with RMS; type: in vivo, human; settings: human, in vivo
# Protocol: Ofatumumab was investigated in 1882 patients with RMS from two identical Phase III randomized, double-blind, double-dummy, active-comparator controlled, parallel-group, multicenter studies of identical design (Study I and Study II). Patients were randomized to receive either ofatumumab, OMB (20 mg s.c injections every 4 weeks, after an initial loading regimen of 3 injections on Day 1, 7, and 14), or teriflunomide, TER (14 mg p.o. once a day) as active comparator. For brevity, the teriflunomide data are not shown hereinafter.
# The maximum treatment duration for an individual patient was 30 study months (approximately 2.5 years). The two studies included a total of 71 patients of Asian race (36 patients in ofatumumab and 35 patients in teriflunomide treatment groups). This Example also includes the Asian patients data from oncology studies (Study A and Study B), as supportive data, where required.
# For the safety analyses of this report, non-serious treatment emergent adverse events (TEAEs) up to and including safety cut-off (i.e. 100 days after last study drug administration) and serious TEAEs regardless of the safety cutoff were considered (if reported prior to the data cut-off of Studies I and II). Common terminology criteria for adverse events (CTCAE) grading was used to record the severity of each AE. The latest version of CTCAE available at the time of TEAE reporting was used. […] The three most frequently reported AEs by SOC were ‘General disorders and administration site conditions’ ‘Infections and infestations’ and ‘Injury, poisoning and procedural complications’ in the Asian and ROW subgroups by race (Table 7). […] In the Asian subgroup, 1 patient experienced SAEs of urinary tract infections, urosepsis and testicular infarction in the ofatumumab group and 1 patient reported an SAE of nephrolithiasis in the teriflunomide group (Table 8). Due to the small number of Asian patients by race and region, results should be interpreted with caution.
# AEs of special interest were summarized by risk name, PT and treatment. Furthermore, the incidence of any AE that fulfilled the search terms as defined in eCRS were summarized by risk name, level, and maximum CTCAE grade. In this section, AESIs are first described for subgroups by race and then by region. […] The definitions of AEs of special interest correspond to the identified or potential risks for ofatumumab and its class of drug as well as those for the comparator (teriflunomide). AESIs, based on the safety profiles of ofatumumab, comparator, and other anti-CD20 mABs are: • Injection-related reactions including injection-systemic reaction and injection-site • reactions • Infections, including opportunistic infections, HBV infection reactivation and PML • Malignant and premalignant disorders • Hepatic Safety • Neutropenia
# [2] = tested on: serum Ig levels; settings: cited from earlier work
# [3] = tested on: serum IgG and IgM levels; settings: cited from earlier work
compound,measurement,setting,value
C/C(O)=C(\C#N)C(=O)Nc1ccc(C(F)(F)F)cc1 [teriflunomide],"AE by PT: alopecia, %",[1],15.3%
same,"AE by PT: alopecia, patients",[1],138
same,"AE by PT: nasopharyngitis, %",[1],17.2%
same,"AE by PT: nasopharyngitis, patients",[1],155
same,"AE by PT: pyrexia, %",[1],14.3%
same,"AE by PT: pyrexia, patients",[1],5
same,"AE by PT: upper respiratory tract infection, %",[1],5.7%
same,"AE by PT: upper respiratory tract infection, patients",[1],2
same,"Patients who experienced at least 1 AE, %",[1],84.2%
same,"SAE by PT: Appendicitis, %",[1],0.2%
same,"SAE by PT: Appendicitis, patients",[1],2
same,"Serious TEAE: Infections and infestations, %",[1],1.9%
ocrelizumab,Reduction of IgG levels,"[2]; after two years (96 weeks), FIG. 6",approx. 5%
same,"Reduction in serum Ig levels, approximate mean rate per year","[2]; per year, over 5.5 years",3-4%
rituximab [RTX],Decrease of IgM levels in serum per year,[3],5.0%
